# Reference: PMC5478727, “A Novel Small Molecule GDNF Receptor RET Agonist, BT13, Promotes Neurite Growth from Sensory Neurons in Vitro and Attenuates Experimental Neuropathy in the Rat” (Frontiers in Pharmacology, 2017)
# Assays:
# [1] = biological target: norepinephrine transporter (Homo sapiens, UniProt P23975); assay: biochemical; settings: read-out: Percentage of inhibition/potentiation from control
# [2] = biological target: T1, serotonin receptor 5-HT2C (Homo sapiens, UniProt P28335); assay: CEREP 5-HT2C (h) (antagonist radioligand); assay type: binding; settings: BT13 1 μM, Cat. No. 0137, average of duplicate, read-out: Percentage of inhibition/potentiation from control
# T1 construct: purchased CEREP (contract assay) 0137, 1003
# T1 sequence (P28335 33-458): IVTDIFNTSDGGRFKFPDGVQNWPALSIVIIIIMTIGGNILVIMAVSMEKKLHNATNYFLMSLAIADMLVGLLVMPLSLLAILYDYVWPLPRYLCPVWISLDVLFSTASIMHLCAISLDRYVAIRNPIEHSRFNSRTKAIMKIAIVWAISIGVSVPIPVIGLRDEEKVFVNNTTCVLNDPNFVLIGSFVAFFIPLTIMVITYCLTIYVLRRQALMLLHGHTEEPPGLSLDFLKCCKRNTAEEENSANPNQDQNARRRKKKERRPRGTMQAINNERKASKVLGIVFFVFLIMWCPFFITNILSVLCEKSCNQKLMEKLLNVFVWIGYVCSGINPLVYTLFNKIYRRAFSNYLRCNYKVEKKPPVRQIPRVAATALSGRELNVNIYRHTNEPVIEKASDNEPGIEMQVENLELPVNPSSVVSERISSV
# [3] = biological target: T2, TrkA (Rattus norvegicus, UniProt P35739); assay: Luciferase reporter-gene assay, TrkA reporter cells; assay type: cell-based; settings: TrkA reporter cell line
# T2 construct: expressed in transfected cells; host or cells: MG87 murine fibroblasts (MG87TrkA)
# T2 sequence (P35739 33-799): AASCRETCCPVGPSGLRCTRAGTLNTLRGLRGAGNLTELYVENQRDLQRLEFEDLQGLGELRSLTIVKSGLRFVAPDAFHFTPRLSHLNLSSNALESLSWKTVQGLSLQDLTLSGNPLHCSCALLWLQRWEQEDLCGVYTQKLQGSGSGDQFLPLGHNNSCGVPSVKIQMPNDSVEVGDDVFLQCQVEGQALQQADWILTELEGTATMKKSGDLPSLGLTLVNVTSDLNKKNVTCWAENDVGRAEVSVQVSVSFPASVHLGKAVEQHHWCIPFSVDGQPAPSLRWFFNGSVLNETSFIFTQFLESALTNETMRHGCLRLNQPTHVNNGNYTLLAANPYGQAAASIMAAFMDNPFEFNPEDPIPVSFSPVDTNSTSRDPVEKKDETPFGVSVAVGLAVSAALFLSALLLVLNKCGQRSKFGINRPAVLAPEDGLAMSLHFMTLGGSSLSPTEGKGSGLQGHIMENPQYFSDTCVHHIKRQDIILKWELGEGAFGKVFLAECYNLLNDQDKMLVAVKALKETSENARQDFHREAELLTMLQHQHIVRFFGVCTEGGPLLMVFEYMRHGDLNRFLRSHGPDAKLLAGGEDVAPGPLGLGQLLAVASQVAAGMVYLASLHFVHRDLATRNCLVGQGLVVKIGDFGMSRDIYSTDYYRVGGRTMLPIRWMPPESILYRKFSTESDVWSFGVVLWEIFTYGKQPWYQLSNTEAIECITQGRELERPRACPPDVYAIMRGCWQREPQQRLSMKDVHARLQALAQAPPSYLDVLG
# [4] = system: Akt and Erk phosphorylation in MG87TrkA; assay: Erk1/2 and Akt phosphorylation assay in MG87TrkA cells; assay type: cell-based, murine; settings: BT13 10–100 μM, NGF positive control
# Method: MG87RET, MG87TrkA, or MG87TrkB were plated on 35 mm tissue culture dishes 1–2 days before the experiment to achieve 90–95% of confluency of the cells at the day of stimulation with tested substances. If necessary, cells were transfected with 4 μg/well of GFRα1-, GFRα3-, or green fluorescent protein (GFP)-expressing plasmid using Lipofectamine 2000 (Invitrogen) for DNA delivery as described by manufacturer. Before the experiment cells were starved in serum-free DMEM containing 15 mM HEPES, pH 7.2 and 1% DMSO for 4 h and stimulated with BT13 or neurotrophic factors. Then cells were washed once with ice-cold PBS containing 1 mM Na3VO4 and 1 mM NaF and lysed on ice in 1 ml per well of RIPA-modified buffer (50 mM Tris-HCl, pH 7.4, 150 mM NaCl, 1 mM EDTA, 1% NP-40, 1% TX-100, 10% glycerol, EDTA-free protease inhibitor cocktail (Roche), 1 mM Na3VO4, 2.5 mg/ml of sodium deoxycholate, 1 mM NaF). Plates were incubated at +4°C on the horizontal shaker for 30 min with vigorous shaking. Afterwards, 80–100 μl aliquot was taken from each well to prepare whole cell lysates. This aliquot was mixed with equal volume of 2x Laemmli loading buffer (4% SDS, 20% glycerol, 10% 2-mercaptoethanol, 0.004% bromphenol blue, 0.125 M Tris HCl, pH 6.8) and boiled for 10 min at 100°C. Remaining cell lysates were used for immunoprecipitation of RET or Trk receptors. […]
# [5] = biological target: T3, serotonin receptor 5-HT1D (Rattus norvegicus, UniProt P28565); assay: CEREP 5-HT1D (agonist radioligand); assay type: binding; settings: BT13 1 μM; Cat. No. 1974; average of duplicate; read-out: Percentage of inhibition/potentiation from control
# T3 construct: purchased CEREP (contract assay) 1974
# T3 sequence (P28565 whole entry): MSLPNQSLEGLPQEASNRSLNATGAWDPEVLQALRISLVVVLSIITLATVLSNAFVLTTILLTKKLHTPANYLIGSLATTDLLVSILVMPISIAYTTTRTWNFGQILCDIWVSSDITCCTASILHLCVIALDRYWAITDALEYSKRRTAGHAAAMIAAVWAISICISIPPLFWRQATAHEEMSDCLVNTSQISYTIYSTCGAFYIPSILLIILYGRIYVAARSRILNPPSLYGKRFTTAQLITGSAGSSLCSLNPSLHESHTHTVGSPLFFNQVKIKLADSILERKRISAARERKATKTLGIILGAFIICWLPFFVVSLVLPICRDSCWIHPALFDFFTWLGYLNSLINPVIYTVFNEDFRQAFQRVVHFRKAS
# [6] = biological target: T4, opioid receptor kappa (KOP) (Rattus norvegicus, UniProt P34975); assay: CEREP Kappa (KOP) (agonist radioligand); assay type: binding; settings: BT13 1 μM; Cat. No. 1971; average of duplicate; read-out: Percentage of inhibition/potentiation from control
# T4 construct: purchased CEREP (contract assay) 1971
# T4 sequence (P34975 whole entry): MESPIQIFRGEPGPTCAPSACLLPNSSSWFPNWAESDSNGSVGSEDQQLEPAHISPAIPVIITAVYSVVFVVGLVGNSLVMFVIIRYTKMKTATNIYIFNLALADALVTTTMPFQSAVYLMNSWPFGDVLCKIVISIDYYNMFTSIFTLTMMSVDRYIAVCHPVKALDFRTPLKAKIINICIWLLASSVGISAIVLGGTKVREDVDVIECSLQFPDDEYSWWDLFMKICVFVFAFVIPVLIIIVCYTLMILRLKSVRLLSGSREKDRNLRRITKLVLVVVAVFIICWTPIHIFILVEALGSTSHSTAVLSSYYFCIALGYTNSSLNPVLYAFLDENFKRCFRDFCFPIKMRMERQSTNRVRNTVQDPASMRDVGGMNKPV
# [7] = biological target: opioid receptor delta (DOP) (Homo sapiens, UniProt P41143); assay: CEREP Delta (DOP) (h) (agonist radioligand); assay type: binding; settings: BT13 1 μM; Cat. No. 0114; average of duplicate; read-out: Percentage of inhibition/potentiation from control
# Chain of opioid receptor delta (DOP) (P41143 whole entry): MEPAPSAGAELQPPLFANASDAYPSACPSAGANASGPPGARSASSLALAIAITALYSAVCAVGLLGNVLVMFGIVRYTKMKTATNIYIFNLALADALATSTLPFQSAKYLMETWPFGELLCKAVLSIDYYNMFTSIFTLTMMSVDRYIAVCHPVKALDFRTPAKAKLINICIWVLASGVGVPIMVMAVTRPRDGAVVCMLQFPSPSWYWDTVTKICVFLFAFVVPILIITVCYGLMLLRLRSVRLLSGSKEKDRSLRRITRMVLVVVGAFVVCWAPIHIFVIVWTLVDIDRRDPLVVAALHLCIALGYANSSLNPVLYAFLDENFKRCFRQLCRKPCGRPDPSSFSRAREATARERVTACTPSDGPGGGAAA
# [8] = system: COMT (catechol-O-methyl transferase); assay: CEREP COMT (catechol-O-methyl transferase); assay type: biochemical; settings: BT13 1 μM; Cat. No. 0457; average of duplicate
# [9] = biological target: cannabinoid receptor CB1 (Homo sapiens, UniProt P21554); assay: CEREP CB1 (h) (agonist radioligand); assay type: binding; settings: BT13 1 μM; Cat. No. 0036; average of duplicate; read-out: Percentage of inhibition/potentiation from control
# Chain of cannabinoid receptor CB1 (P21554 whole entry): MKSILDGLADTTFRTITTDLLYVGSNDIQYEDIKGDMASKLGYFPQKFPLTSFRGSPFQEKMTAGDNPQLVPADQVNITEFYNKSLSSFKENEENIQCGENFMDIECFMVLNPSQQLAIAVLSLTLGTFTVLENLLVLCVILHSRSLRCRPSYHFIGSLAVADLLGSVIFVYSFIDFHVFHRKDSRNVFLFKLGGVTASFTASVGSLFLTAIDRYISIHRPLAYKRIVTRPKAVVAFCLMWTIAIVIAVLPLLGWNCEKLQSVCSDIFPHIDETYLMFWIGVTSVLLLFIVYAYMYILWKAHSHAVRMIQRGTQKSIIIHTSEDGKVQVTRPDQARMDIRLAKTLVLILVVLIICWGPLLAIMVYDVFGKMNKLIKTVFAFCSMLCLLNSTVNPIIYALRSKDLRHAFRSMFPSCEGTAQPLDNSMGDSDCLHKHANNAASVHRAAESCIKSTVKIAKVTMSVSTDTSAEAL
# [10] = biological target: opioid receptor mu (MOP) (Homo sapiens, UniProt P35372); assay: CEREP Mu (MOP) (h) (agonist radioligand); assay type: binding; settings: BT13 1 μM; Cat. No. 0118; average of duplicate; read-out: Percentage of inhibition/potentiation from control
# Chain of opioid receptor mu (MOP) (P35372 whole entry): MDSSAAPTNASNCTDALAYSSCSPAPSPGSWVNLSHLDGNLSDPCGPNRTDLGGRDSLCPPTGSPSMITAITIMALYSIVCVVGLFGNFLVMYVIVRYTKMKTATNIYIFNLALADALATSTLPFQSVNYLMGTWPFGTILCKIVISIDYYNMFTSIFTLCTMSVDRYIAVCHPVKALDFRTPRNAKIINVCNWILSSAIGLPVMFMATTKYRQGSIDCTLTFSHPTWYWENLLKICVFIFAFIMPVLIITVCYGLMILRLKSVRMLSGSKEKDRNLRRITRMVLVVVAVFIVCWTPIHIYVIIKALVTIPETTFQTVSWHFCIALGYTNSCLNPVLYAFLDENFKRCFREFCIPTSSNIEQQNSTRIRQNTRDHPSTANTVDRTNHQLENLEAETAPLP
# [11] = biological target: T5, TrkB (Rattus norvegicus, UniProt Q63604); assay: Luciferase reporter-gene assay, TrkB reporter cells; assay type: cell-based; settings: TrkB reporter cell line
# T5 construct: expressed in transfected cells; host or cells: MG87 murine fibroblasts (MG87TrkB)
# T5 sequence (Q63604 32-821): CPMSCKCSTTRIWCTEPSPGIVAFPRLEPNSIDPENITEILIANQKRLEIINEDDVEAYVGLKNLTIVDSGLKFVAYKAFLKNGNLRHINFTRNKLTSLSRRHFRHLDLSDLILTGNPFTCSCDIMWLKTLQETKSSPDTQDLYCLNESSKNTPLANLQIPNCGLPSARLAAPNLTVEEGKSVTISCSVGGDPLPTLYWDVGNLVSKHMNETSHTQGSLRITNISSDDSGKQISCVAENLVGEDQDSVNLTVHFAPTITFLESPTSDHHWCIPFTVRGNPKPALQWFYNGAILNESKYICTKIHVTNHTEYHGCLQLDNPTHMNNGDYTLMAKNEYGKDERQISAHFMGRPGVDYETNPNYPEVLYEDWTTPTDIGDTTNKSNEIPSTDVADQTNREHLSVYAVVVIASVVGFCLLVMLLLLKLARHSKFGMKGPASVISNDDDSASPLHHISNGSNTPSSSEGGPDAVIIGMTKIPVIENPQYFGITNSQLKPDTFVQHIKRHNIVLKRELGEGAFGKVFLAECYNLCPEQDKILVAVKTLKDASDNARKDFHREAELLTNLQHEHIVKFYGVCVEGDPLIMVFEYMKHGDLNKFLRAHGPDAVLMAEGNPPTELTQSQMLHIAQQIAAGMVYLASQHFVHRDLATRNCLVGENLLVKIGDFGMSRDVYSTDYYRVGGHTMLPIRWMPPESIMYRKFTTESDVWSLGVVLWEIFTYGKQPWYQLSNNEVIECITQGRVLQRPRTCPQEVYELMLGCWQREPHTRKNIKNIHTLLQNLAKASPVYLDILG
# [12] = biological target: adenosine receptor A1 (Homo sapiens, UniProt P30542); assay: CEREP A1 (h) (antagonist radioligand); assay type: binding; settings: BT13 1 μM; Cat. No. 0002; average of duplicate; read-out: Percentage of inhibition/potentiation from control
# Chain of adenosine receptor A1 (P30542 whole entry): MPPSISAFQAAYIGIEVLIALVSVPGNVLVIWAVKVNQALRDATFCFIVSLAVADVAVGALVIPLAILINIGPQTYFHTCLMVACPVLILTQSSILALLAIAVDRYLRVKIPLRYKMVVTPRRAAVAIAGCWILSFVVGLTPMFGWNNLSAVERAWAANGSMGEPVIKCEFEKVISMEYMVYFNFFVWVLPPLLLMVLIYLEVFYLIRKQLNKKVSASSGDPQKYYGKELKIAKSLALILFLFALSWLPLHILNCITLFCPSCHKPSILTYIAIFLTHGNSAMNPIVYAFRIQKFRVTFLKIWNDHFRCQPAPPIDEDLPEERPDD
# [13] = system: HepG2 cells
# Chain of norepinephrine transporter (P23975 whole entry): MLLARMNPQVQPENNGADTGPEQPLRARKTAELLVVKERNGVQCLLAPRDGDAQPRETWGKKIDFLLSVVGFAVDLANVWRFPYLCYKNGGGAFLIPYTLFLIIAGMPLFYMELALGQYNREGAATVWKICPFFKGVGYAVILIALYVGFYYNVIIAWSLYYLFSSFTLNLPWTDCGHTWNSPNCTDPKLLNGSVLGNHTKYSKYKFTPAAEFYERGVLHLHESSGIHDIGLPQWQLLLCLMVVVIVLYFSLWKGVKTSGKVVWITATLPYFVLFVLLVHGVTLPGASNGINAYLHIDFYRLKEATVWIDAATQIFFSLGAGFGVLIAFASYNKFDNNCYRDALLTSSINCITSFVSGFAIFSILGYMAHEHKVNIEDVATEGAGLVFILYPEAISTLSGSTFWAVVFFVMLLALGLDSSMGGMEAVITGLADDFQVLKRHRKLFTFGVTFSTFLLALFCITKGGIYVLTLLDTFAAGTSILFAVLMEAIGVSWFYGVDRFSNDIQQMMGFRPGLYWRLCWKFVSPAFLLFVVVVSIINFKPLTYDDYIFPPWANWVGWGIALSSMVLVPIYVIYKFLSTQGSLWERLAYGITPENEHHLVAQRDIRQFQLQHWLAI
smiles,measurement,setting,value
CCN(CC)S(=O)(=O)c1ccc(OC)c(N2CCN(C(=O)c3ccc(F)cc3C(F)(F)F)CC2)c1 [BT13],inhibition at 1 µM,[1],-5%
same,inhibition at 1 µM,[2],11%
same,activation of luciferase reporter,[3],did not activate luciferase
same,Akt and Erk phosphorylation,[4],no Akt or Erk phosphorylation was observed
same,inhibition at 1 µM,[5],1%
same,inhibition at 1 µM,[6],0%
same,inhibition at 1 µM,[7],3%
same,Percentage of inhibition/potentiation from control,[8],−2%
same,inhibition at 1 µM,[9],9%
same,inhibition at 1 µM,[10],1%
same,activation of luciferase reporter,[11],did not activate luciferase
same,inhibition at 1 µM,[12],5%
same,Cytotoxicity to human hepatoma cells (HepG2; LD50),[13],90.4 ± 8.5 µM
